Results published in patent US6773705B1, “Methods for diagnosing and treating autoimmune disease” (General Hospital Corporation, priority 1998, dated 2004).
Square brackets hold non-standard residues; d marks the D form. Peptide text beside a SMILES is read from it. * marks the point of attachment. Nva = CCC[C@H](N)C(=O)O; Cbz = O=C(OCc1ccccc1)*

Experiments:
[1] = target: T1, NFκBp65-associated protein kinase (cytosolic); assay: In vitro kinase assay, GST-CTD phosphorylation by GST-NFκBp65-precipitated complexes from Molt-4 cytosolic extract; type: biochemical, human; conditions: GST-CTD substrate, FIG. 1C
T1 construct: other: cytosolic; GST-C
Procedure: (§2) GST-NFκp65 and GST-CTD were expressed in BL21 pLysS E. Coli cells and purified by selective absorption to glutathione sepharose beads. GST-NFκBp65 was incubated with Molt-4 cytosolic and nuclear extracts, prepared as described above. Reaction mixtures were washed in PBS. The precipitated complexes were then incubated with GST-CTD of RNA polymerase II large subunit in kinase buffer containing γ-[^32P]ATP as previously described (Hayashi et al., 1993, J. Biol. Chem., 268: 26790-26795; Faustman et al., 1989, Diabetes, 38: 1462-1468). One-fortieth of the input (I) and supernatant (S) fractions and 1/40 of the last wash (W) and pellet (P) fractions were used for in vitro kinase reaction. Protein complexes were collected by brief centrifugation, washed and then incubated with GST-CTD substrates in kinase buffer containing y-^32P ATP. The products of the in vitro kinase reactions were then analyzed on SDS-PAGE. […] To determine whether the kinase activity of NFκBp65-associated protein kinase were sensitive to DRB, the ability of DRB to inhibit the kinase activity of NFκBp65 association protein kinase was tested by examining the phosphorylation of CTD in the presence of different concentrations of DRB. […] Quantitation of the gel shown in FIG. 1C with an image analyzer (a BAS 3000 phosphorimager) was plotted on a graph. […]

[2] = target: NFκBp65-associated protein kinase (nuclear); type: biochemical, human; conditions: GST-CTD substrate, FIG. 1C
Procedure: as §2

20S proteasome [3] = assay: In vitro p105/p60Tth processing assay with mouse spleen cytosolic extracts; type: biochemical; conditions: MG115 50 μM, FIG. 12A, 12B right
Procedure: To investigate whether the altered abundance of p50 in NOD mouse spleen cells could be attributable to defective processing of p105 by the proteasome, the processing of p105 by cytosolic extracts of NOD mouse spleen cells was examined using recombinant p105 or the truncated version p60Tth as substrates. The in vitro p105 processing assay reaction was performed as previously described (Fan and Maniatis, 1991, supra). In brief, p105 and p60Tth expression constructs were subjected to in vitro transcription and translation in a wheat germ extract system (Promega) in the presence of [^35S]methionine. The ^35S-labeled p105 and p60th proteins were immunoprecipitated with polyclonal antibodies to p50 and purified for use as substrates. Each substrate protein was incubated for 90 minutes at 30° C. with spleen cytosolic extract (20 or40 μg of protein) in a final volume of 25 μl in the absence or presence of 10 mM ATP (Palombella et al., 1994, supra). The proteasome inhibitor MG115 was also added to the reaction mixture where indicated (FIG. 12). The processed proteins were separated by SDS-polyacrylamide gel electrophoresis (PAGE) on a 10% gel and visualized by autoradiography. […] When p60Tth was incubated with cytosolic extracts of BALB/c cells in the presence of […], mature p50 was generated (FIG. 12A, center). […]

proteasome = assay: In vitro p105 processing assay with cytoplasmic extracts of T1, T2, Molt-4 and Jurkat cells; type: biochemical; conditions: 50 μg MG115; cell line cytoplasmic extracts; FIG. 12G
Procedure: The labeled p105 was incubated with the cytosolic extracts of these cell lines (20 or 40 μg of protein at left and center) and the reaction mixtures were incubated with (center; FIGS. 12E, F and G) or without (upper; FIGS. 12E, F and G) 10 mM ATP in a wheat germ extract system (Promega) as above. Incubations were also performed in the absence (−) or presence (+) of 50 μg MG115 (lower; FIGS. 12E, F and G). Lane 1 in all gels presented in FIGS. 12E, F and G corresponds to reaction mixtures without substrate. Incubations were performed at 30° C. for 90 minutes, after which the reaction mixtures were analyzed by SDS-PAGE and autoradiography. […] When p105 was incubated with the cytoplasmic extracts of T1 cells, Molt-4 cells and Jurkat cells in the presence of 10 mM ATP, the mature p50 was detected (FIG. 12F); however, the p50 was not generated by incubation of p105 with the cytoplasmic extracts prepared from T2 cells in the presence of 10 mM ATP (FIG. 12F, lanes 4 and 5). To verify that the maturation processing of p50 in the in vitro reaction was mediated by the proteasome processing pathway, the effect of MG115 on proteasome function was examined.

20S proteasome [4] = conditions: MG115 50 μM; Palombella et al., 1994; cited from earlier work
NF-κB [5] = assay: EMSA of nuclear NF-κB DNA-binding activity in TNF-α-treated cell lines; type: cell-based; conditions: TNF-α 10 ng/ml, 4 h, FIG. 11A
Procedure: Furthermore, in the […] cell line, in which Lmp2 and Lmp7 genes have been deleted, NF-κB is not activated in response to TNF-α. The effect of TNF-α treatment on the DNA-binding activity of nuclear NF-κB was examined (FIG. 11). EMSA was performed such that cell extracts from mutant T2 cells compared to those of control T1 cells, Molt-4 cells and Jurkat cells after stimulation for 4 h in the absence (−) or presence (+) of 10 ng/ml TNF-α.
-unlabeled oligonucleotide (κB1). Double-stranded oligodeoxynucleotides were synthesized on a DNA synthesizer by the phosphoramidite method and purified on an OPC cartridge. […] The DNA-protein complexes were resolved by electrophoresis on nondenaturing 8% polyacrylamide gels with 0.5×TBE (Tris-borate-EDTA) buffer at 4° C. For competition experiments, nuclear extracts was incubated for […] at 4° C. with a 100-fold molar excess of unlabeled κB oligonucleotide before addition of the radioactive probe. Cytosolic extracts were treated with 1.2% NP-40 and 0.8% deoxycholate to dissociate IκB from NF-κB before incubation with 3^2P-labeled probe. For supershift assays, nuclear extracts were incubated with specific antibodies in 1 hour at 4° C. before addition of DNA probes. Lanes 1 correspondes to negative controls in which nuclear extract was not added.

IκBα = assay: Immunoblot of cytosolic IκBα in TNF-α-treated spleen lymphocytes; type: cell-based, mouse; conditions: TNF-α 10 ng/ml, FIG. 10B
Procedure: The basal expression of NF-κB subunits, IκBa and cyclin-dependent kinases was examined by immunoblot analysis of cytosolic and nuclear extracts of male (M) or female (F) BALB/c and NOD mouse spleen cells (FIG. 10). In these experiments, extracts of spleen cells were subjected to SDS-PAGE on a 12.5% gel under non-reducing conditions. The separated proteins were transferred electrophoretically to a polyvinylidene difluoride (PVDF) membrane which was then incubated for 2 hours at room temperature with TBS-T (20 mM Tris-HCl, pH 7.6; 137 mM NaCl; 0.05% volume/volume Tween 20) containing 8% (weight/volume) bovine serum albumin. The membrane was then incubated for 12 h at 4° C. with TBS-T containing the appropriate polyclonal antibodies, washed 4×5 minutes with TBS-T at room temperature, incubated for 2 hours at room temperature with TBS-T containing alkaline phosphatase-conjugated secondary antibodies, washed five times with TBS-T and subjected to the alkaline phosphatase color reaction. […]
To assess the dynamics of IκBα protein expression occurring during lymphocyte activation by TNF-α treatment, subcellular fractions from lymphocytes derived from BALB/c and NOD spleen were treated with 10 ng/ml TNF-α. […] IκBα protein was readily detected in the cytosolic extracts from both unstimulated lymphocytes, BALB/c and NOD. […]

spleen cells = assay: TNF-α cytotoxicity of spleen cells (viable cell count, DNA fragmentation); type: cell-based, mouse
Procedure: One critical function of NFκB is to provide protection to cells from the effects of exogenous TNF-α. […] Spleen cells were cultured for 24 hours after exposure to various concentrations (2, 5, 10 or 20 ng/ml) of TNF-α, as indicated on the X axis of the figure. Viable cells remaining after TNF-α treatment are shown as a percentage of viable control (untreated) cells. Standard deviations were calculated from four independent readings within a single experiment. The survival over time of cells treated with TNF-α is charted in FIG. 13B. Spleen cells were treated with TNF-α (10 ng/ml), and viable cells were counted at various times following treatment as indicated on the X axis of the figure.
(§1) DNA fragmentation was evaluated and detected by agarose gel electrophoresis after spleen cells were cultured in 10 ng/ml TNF-α for 24 hours. […] Embryonic fibroblasts prepared from BALB/c and NOD mice were cultured DMEM containing 10% fetal bovine serum and then incubated with various concentrations of TNF-α for 24 hours (FIG. 13D, top) or with TNF-α at 10 ng/ml for the indicated times (FIG. 13D, bottom). Cell viability was assessed by trypan blue exclusion. Data are means±SD of four replicates from a representative experiment, and are expressed as a percentage of the survival value for the corresponding cells not exposed to TNF-α.

[6] = system: mouse embryonic fibroblasts (MEF); assay: TNF-α cytotoxicity of embryonic fibroblasts (trypan blue exclusion); type: cell-based; conditions: NOD MEF; various TNF-α concentrations 24 hours or 10 ng/ml over time; FIG. 13D
Procedure: as §1

NF-κB [7] = assay: EMSA of NF-κB DNA-binding activity in nuclear extracts of TNF-α-treated spleen cells; conditions: NOD mouse spleen cells (male and female); TNF-α 10 ng/ml, 4 hours; FIG. 8A
Procedure: In order to assess the influence of TNF-α on NFκB in an in vitro system, a DNA/protein binding assay was undertaken. Nuclear extracts were prepared from BALB/C and NOD mice by methods described above. The binding activities were examined by EMSA with ^32P end-labeled oligonucleotide containing an NFκB recognition sequence. Spleen cells were stimulated with TNF-α treatment (10 ng/ml;+) or without TNF-α treatment (−) and nuclear extracts from the treated cells were prepared 4 hours later. Nuclear extract prepared from spleen cells of BALB/C (lanes 2-5; FIG. 8A) and NOD (lanes 6-9; FIG. 8A) mice and Molt-4 cells (lanes 10 and 11; FIG. 8A) were incubated with DNA probe as follows:
Double-stranded κB wt, κB mut or IL-R2α κB oligonucleotides were end-labeled using [α-^32P]dCTP and Klenow polymerase. Binding reactions of the DNA probe with nuclear extracts were performed at 37° C. for minutes in a total volume of 10 μl of buffer containing 10 mM Hepes (H 7.9), 50 mM KCl, 5 mM Tris-HCl (pH 7.0), 1 mM DTT, 15 mM EDTA, 10% (v/v) glycerol, 1.0 μg of poly (dI.dC), and 4 ng of the labeled probe. The DNA-protein complexes were resolved on nondenaturing 8% polyacrylamide gels. Electrophoresis was performed with 0.5×TBE buffer (4.5 mM Tris-HCl, 4.5 mM boric acid, 0.1 mM EDTA) at 4° C. A negative binding control, to which no nuclear extract was added, was run in lane 1. […]

In the case of `OC[C@H]1O[C@@H](n2cnc3cc(Cl)c(Cl)cc32)[C@H](O)[C@@H]1O` [DRB, 5,6-dichloro-1-β-D-ribofuranosylbenzimidazole], the “concentration required for 50% inhibition of the activity of NFκBp65-associated protein kinase” value [1] is reported as 10 µM and the “concentration required for 50% inhibition of the activity of NFκBp65-associated protein kinase” value [2] is reported as 1 µM.

In the case of `CCC[C@@H](C=O)NC(=O)[C@H](CC(C)C)NC(=O)[C@H](CC(C)C)NC(=O)OCc1ccccc1` [MG115] (Cbz-Leu-Leu-[Nva]-aldehyde), the “processing of p105 and p60Tth” value (20S proteasome [3]) is given as “completely inhibited”, the “p105 processing to p50” value (proteasome) is given as “clearly resulted in defective p105 processing” and the “processing of p105” value (20S proteasome [4]) is given as “prevent the processing of p105”.

For TNF-α, the “expression of the active nuclear form of NF-κB on EMSA” value (NF-κB [5]; T1, Molt-4 and Jurkat cells) was “markedly detected”, the NF-κB activity (NF-κB [5]; T2 cells (Lmp2, Lmp7 deleted)) was “not induced” and the “time to disappearance of cytosolic IκBα” value (IκBα; BALB/c lymphocytes) was no more than 40 min. For the same compound, the “cytosolic IκBα during TNF-α treatment” value (IκBα; NOD lymphocytes) was “clearly detected after 40 minutes of stimulation and then stably expressed”, the “DNA fragmentation by agarose gel electrophoresis” value (spleen cells; NOD but not BALB/c spleen cells, TNF-α 10 ng/ml, 24 hours, FIG. 13C) was “resulted in apoptosis” and the “toxicity, cell survival” value (spleen cells; NOD spleen cells, TNF-α 2-20 ng/ml, 24 hours, or 10 ng/ml over time, FIG. 13A, 13B) was “toxic”. For the same compound, the cellular toxicity [6] was “no cellular toxicity” and the NF-κB activation (NF-κB [7]) was “only slightly induced”.
